Reference: PubChem BioAssay (NCI)
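Five concentrations, 48 hours, 96-well plates. Abbreviation: GI50, concentration required for 50% inhibition of growth. The concentration for full growth arrest is given as TGI.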 Where a SMILES comes first, the peptide text is derived from it. The star is where a group is joined. Cbz = O=C(OCc1ccccc1)*; OBn = c1ccc(CO*)cc1

Tests used:
Assay in all cases: DTP human tumour cell line panel, 48 h
[1] = system: UACC-62 melanoma
[2] = system: KM12 colon
[3] = system: HL-60(TB) leukemia
[4] = system: IGROV1 ovarian
[5] = system: U251 CNS
[6] = system: CAKI-1 renal
[7] = system: HCT-15 colon
[8] = system: MALME-3M melanoma
[9] = system: SW-620 colon
[10] = system: HOP-92 NSCLC

COc1ccc(N=N/C(=N/NC(=O)c2ccccc2)c2ccc(N(CCC#N)CCC#N)cc2C)cc1
TGI [1]: > 100 µM
TGI [2]: > 100 µM
TGI [3]: > 100 µM
TGI [4]: > 100 µM
TGI [5]: > 100 µM
TGI [6]: > 100 µM
TGI [7]: > 100 µM
TGI [8]: > 100 µM

c1ccc2c(c1)nc(NC1CCCC1)c1[nH]c(C3CCCC3)nc12
TGI [1]: 29.8 µM
TGI [2]: 21.3 µM
TGI [3]: 6.82 µM
TGI [4]: 46 µM
TGI [5]: 13.3 µM
TGI [9]: 21.2 µM
TGI [10]: 37.2 µM
TGI [7]: 28.3 µM
TGI [8]: 30.7 µM

COC(=O)C(Cc1ccc(O)cc1)NC(=O)C(CC(=O)OCc1ccccc1)NC(=O)OCc1ccccc1 (stereo not given) (Cbz-Asp(OBn)-Tyr-OMe; configuration not given here)
TGI [2]: 39.5 µM
TGI [3]: 52.7 µM
TGI [4]: 31.1 µM
TGI [5]: 35 µM
TGI [9]: 44.8 µM
TGI [10]: > 100 µM
TGI [7]: 33.7 µM
TGI [8]: > 100 µM

CSc1c(C#N)c(=O)[nH]c2n[nH]c(C)c12
TGI [1]: > 100 µM
TGI [2]: > 100 µM
TGI [3]: > 100 µM
TGI [5]: > 100 µM
TGI [9]: > 100 µM
TGI [6]: > 100 µM
TGI [7]: > 100 µM
TGI [8]: > 100 µM

CN(NC(=O)CCCl)C1=NCCCCN1
TGI [1]: > 100 µM
TGI [2]: > 100 µM
TGI [3]: > 100 µM
TGI [4]: > 100 µM
TGI [5]: > 100 µM
TGI [9]: > 100 µM
TGI [10]: > 100 µM
TGI [7]: > 100 µM
TGI [8]: > 100 µM

OC1(c2cc3ccccc3s2)CCCCC1
TGI [1]: > 100 µM
TGI [2]: > 100 µM
TGI [3]: > 100 µM
TGI [4]: > 100 µM
TGI [5]: > 100 µM
TGI [9]: > 100 µM
TGI [6]: > 100 µM
TGI [10]: > 100 µM
TGI [7]: > 100 µM

CC(=O)OC(OC(C)=O)n1cc(C=O)c2ccccc21
TGI [3]: > 100 µM
TGI [5]: > 100 µM
TGI [9]: > 100 µM
TGI [6]: > 100 µM
TGI [7]: > 100 µM

N#C[S-].[Nd+3].c1ccc(-c2ccccn2)nc1.c1ccc(-c2ccccn2)nc1.c1ccc(-c2ccccn2)nc1
GI50 [1]: 5.26 µM
TGI [1]: 28.2 µM
GI50 [2]: 5.62 µM
TGI [2]: > 100 µM
GI50 [4]: 11.6 µM
TGI [4]: 42.6 µM
GI50 [5]: 4.18 µM
TGI [5]: > 100 µM
GI50 [9]: 5.93 µM
TGI [9]: > 100 µM
GI50 [6]: 5.9 µM
TGI [6]: > 100 µM
GI50 [7]: 3.82 µM
TGI [7]: > 100 µM
GI50 [8]: 18.5 µM
TGI [8]: 68.4 µM

COc1cccc(Cc2c3cc(OC)ccc3cc[n+]2C)c1
TGI [2]: > 100 µM
TGI [5]: > 100 µM
TGI [9]: > 100 µM
TGI [6]: > 100 µM
TGI [7]: > 100 µM
TGI [8]: > 100 µM

COc1ccc2c(c1)n([O-])c(C#N)c(N1CCN(c3ccc([N+](=O)[O-])cc3)CC1)[n+]2=O
TGI [1]: > 100 µM
TGI [2]: > 79.1 µM
TGI [3]: 29.1 µM
TGI [4]: > 100 µM
TGI [5]: > 100 µM
TGI [9]: > 100 µM
TGI [6]: > 100 µM
TGI [7]: > 100 µM
TGI [8]: 19.1 µM

O=C1Nc2cc([N+](=O)[O-])ccc2NC1/C(=N\Nc1ccccc1)C(O)c1cccc([N+](=O)[O-])c1 (stereo not given)
TGI [1]: > 100 µM
TGI [2]: > 100 µM
TGI [3]: > 100 µM
TGI [4]: > 100 µM
TGI [5]: > 100 µM
TGI [9]: > 100 µM
TGI [10]: > 100 µM
TGI [7]: 44.7 µM
TGI [8]: > 100 µM

Cc1nc2ccc(S(=O)(=O)O)cc2c(=O)n1-c1ccc(C(=O)NN2C(=O)C(Cl)C2c2ccccc2O)cc1 (stereo not given)
TGI [2]: > 100 µM
TGI [3]: > 100 µM
TGI [4]: > 100 µM
TGI [5]: > 100 µM
TGI [9]: > 100 µM
TGI [6]: > 100 µM
TGI [10]: > 100 µM
TGI [7]: > 100 µM
TGI [8]: > 100 µM

COC(OC)C1OC(CO)C(n2ccc(N)nc2=O)C1O (stereo not given)
TGI [1]: > 100 µM
TGI [2]: > 100 µM
TGI [4]: > 100 µM
TGI [5]: > 100 µM
TGI [9]: > 100 µM
TGI [6]: > 100 µM
TGI [10]: > 100 µM
TGI [7]: > 100 µM
TGI [8]: > 100 µM

O=C(NC1CCN(Cc2ccccc2)CC1)c1cc2nc(-c3ccc(Cl)s3)cc(C(F)(F)F)n2n1
GI50 [4]: > 100 µM
TGI [4]: > 100 µM
GI50 [5]: 5.98 µM
TGI [5]: > 100 µM
GI50 [6]: > 100 µM
TGI [6]: > 100 µM
GI50 [10]: 15.4 µM
TGI [10]: > 100 µM

O=c1c(C=Nc2ccc([N+](=O)[O-])cc2)c(O)n(-c2ccccc2)c(=O)n1-c1ccccc1
TGI [1]: > 100 µM
TGI [2]: > 100 µM
TGI [4]: > 100 µM
TGI [5]: > 100 µM
TGI [9]: > 100 µM
TGI [6]: > 100 µM
TGI [10]: > 100 µM
TGI [7]: > 100 µM
TGI [8]: > 100 µM

COC(=O)n1c(=O)n(-c2ccccc2)c(=O)n1C(=O)OC
TGI [1]: > 100 µM
TGI [2]: > 100 µM
TGI [3]: > 100 µM
TGI [4]: > 100 µM
TGI [5]: > 100 µM
TGI [9]: > 100 µM
TGI [6]: > 100 µM
TGI [7]: > 100 µM
TGI [8]: > 100 µM
